The values that follow come from ChEMBL document CHEMBL4257005, “Therapeutically active compounds and their methods of use” (2016).

In experiment [1] the target is Isocitrate dehydrogenase [NADP] cytoplasmic (Homo sapiens, UniProt O75874, R132C). Kind of experiment: Inhibition of DH1 R132C mutant homodimer (unknown origin) expressed in Sf9 cells pre-incubated for 1 hr before addition of alpha-KG followed by 90 mins incubation in presence of NADPH, NADP, diaphorase and resazurin by fluorescence spectrometry. On the technique in general: Alamar Blue is a resazurin reagent that responds to reducing activity.

The target in experiment [2] is Isocitrate dehydrogenase [NADP] cytoplasmic (Homo sapiens, UniProt O75874, R132H). Kind of experiment: Inhibition of DH1 R132H mutant homodimer (unknown origin) expressed in Sf9 cells pre-incubated for 1 hr before addition of alpha-KG followed by 90 mins incubation in presence of NADPH, NADP, diaphorase and resazurin by fluorescence spectrometry.
The target of experiment [3] is Isocitrate dehydrogenase [NADP] cytoplasmic (Homo sapiens, UniProt O75874). As to the kind of experiment: Inhibition of His-tagged wild type IDH1 (unknown origin)/FLAG-tagged IDH1 R132H mutant heterodimer expressed in Sf9 cells pre-incubated for 1 hr before addition of alpha-KG followed by diaphorase and resazurin addition and measured after 5 mins in presence of NADPH and 30 uM NADP ny fluorescence spectrometry.
Chain of Isocitrate dehydrogenase [NADP] cytoplasmic (Homo sapiens, UniProt O75874) (O75874 2-414 limits assumed): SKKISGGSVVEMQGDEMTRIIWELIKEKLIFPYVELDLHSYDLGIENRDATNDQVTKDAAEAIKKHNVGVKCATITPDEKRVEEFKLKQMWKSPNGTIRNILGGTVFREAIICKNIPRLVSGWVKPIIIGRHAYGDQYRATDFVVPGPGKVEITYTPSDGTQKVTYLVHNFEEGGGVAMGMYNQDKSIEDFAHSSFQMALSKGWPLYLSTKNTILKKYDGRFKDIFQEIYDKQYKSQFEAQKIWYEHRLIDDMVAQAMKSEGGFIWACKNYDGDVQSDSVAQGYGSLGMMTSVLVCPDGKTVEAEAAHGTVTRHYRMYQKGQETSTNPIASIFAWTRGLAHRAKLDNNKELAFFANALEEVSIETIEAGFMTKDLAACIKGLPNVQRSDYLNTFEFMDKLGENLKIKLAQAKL

Chain of Isocitrate dehydrogenase [NADP] cytoplasmic (Homo sapiens, UniProt O75874, R132C) (O75874 2-414 R132C limits assumed): as the sequence (O75874 2-414 limits assumed) above, with R131C counted along it
Chain of Isocitrate dehydrogenase [NADP] cytoplasmic (Homo sapiens, UniProt O75874, R132H) (O75874 2-414 R132H limits assumed): as the sequence (O75874 2-414 limits assumed) above, with R131H counted along it

For `C[C@@H](Nc1nc(N[C@H](C)C2CC2)nc(-c2cccc(C(F)(F)F)n2)n1)C(=O)N(C)C`, the IC50 result in experiment [1] is given as “Not Active”.

On to `C[C@@H](Nc1nc(N[C@H](C)C2CC2)nc(-c2cccc(C(F)(F)F)n2)n1)C(=O)O`, for which the IC50 entry in experiment [1] is recorded as “Not Active”.

As to `C[C@@H](Nc1nc(NCC(N)=O)nc(-c2cccc(C(F)(F)F)n2)n1)C1CC1`, the IC50 result in experiment [1] is on record as “Not Active”.

Take `COc1ccc(F)c(-c2nc(N[C@H](C)C3CC3)nc(N[C@H](C)C3CC3)n2)c1`: the IC50 result in experiment [2] is recorded as “Not Active”.

Consider `C[C@@H](Nc1nc(N[C@H](C)C2CC2)nc(-c2ccc(Cl)cc2)n1)C1CC1`, for which, in experiment [3], the IC50 entry is recorded as “Not Active”.
